{
  "source": "paper PMC11926880",
  "about": "“Procognitive Potential of Neuroprotective Triazine 5-HT6 Receptor Antagonists Tested on Chronic Activity In Vivo in Rats: Computer-Aided Insight into the Role of Chalcogen-Differences on the Pharmacological Profile” (ACS Chemical Neuroscience, 2025)",
  "key": {"rats [1]": {"tested_on": "rats", "assay": "NORT after 21 day administration, discrimination index", "type": "in vivo, rat", "conditions": "for reversal of (+)MK-801-induced memory disturbances (DI): (+)MK-801 0.1 mg/kg", "experimental": "Standard laboratory food (LSM-B) and filtered water as well as environment enrichment were freely available. Animals were randomly divided into treatment groups using a computer-based random order generator. All of the experiments were performed by two observers unaware of the treatment applied between 9:00 and 14:00 on separate groups of animals.\nIn the NOR test (NORT), rats were randomly divided into experimental groups (n = 8/group). […] All compounds were prepared immediately before administration and were injected intraperitoneally (i.p.) in a constant volume of 2 mL/kg. […] The control group received 1% Tween 80 on the same schedule.\nThe test was carried out according to the method described by Ennaceur.[46] NORT was conducted in two black-painted wood boxes (60 cm × 60 cm × 60 cm). A video camera mounted above the boxes recorded all experiments. Two days before the test, the rats were placed in the empty experimental boxes for 5 min as a habituation to the test area. On the third day, the test was performed in 2 trials lasting for 3 min at one-hour intervals. First session, familiarization (T1) with two identical objects (A1 and A2) located in the opposite corners of the boxes, approximately 10 cm from the walls, and second trial, recognition (T2) with one familiar (A) and one novel object (B). Metal cans and glass jars with sand were used as the objects. The boxes were cleaned and dried after each measurement. The exploration time (E) of the objects (such as looking, licking, sniffing, or touching while sniffing) during T2 was measured, and the discrimination index (DI) was calculated according to the following formula: DI = (EB – EA)/(EA + EB).\nThe normality of data distribution and the homogeneity of variance were checked using the Shapiro–Wilk’s test and Levene’s test, respectively. All behavioral results are shown as the means ± SEM."}, "SH-SY5Y cells [2]": {"tested_on": "SH-SY5Y cells", "assay": "MTS assay 72 h, neurotoxic effect", "type": "cell-based, human", "conditions": "10 and 50 μM", "experimental": "SHSY5Y cells were grown in DMEM supplemented by 10% FBS, L-glutamine (2 mM), and penicillin (100u/mL)/streptomycin (100 μg/mL). The cell line was tested for mycoplasma using DAPI staining and the LookOut Mycoplasma PCR Detection Kit (MP0035, Merck). The cell line was authenticated after thawing by a morphology check, cell proliferation rate evaluation, and species verification by PCR. Bacteria contamination was excluded. […] Subsequently, cells were subjected to a CellTiter 96 AQueous One Solution Cell Proliferation Assay (Promega), according to the manufacturer’s protocol. The absorbance at 490 nm was evaluated to estimate the cell number."}, "HepG2": {"tested_on": "HepG2", "parameters": "method as in PMID 38190615, PMID 35228010", "conditions": "tested at 0.1–100 μM; cited from earlier work"}, "NRF2": {"tested_on": "NRF2", "assay": "Western blot for NRF2 (total and nuclear extracts)", "type": "cell-based, human", "conditions": "10 μM, 24 h"}, "[3]": {"parameters": "method as in PMID 38190615, PMID 35228010", "conditions": "AMES test; cited from earlier work"}, "[4]": {"parameters": "method as in PMID 38190615", "conditions": "serum, cited from earlier work"}, "SH-SY5Y cells [5]": {"tested_on": "SH-SY5Y cells", "conditions": "50 μM, 27 h; cited from earlier work"}, "HT-22 cell line [6]": {"tested_on": "HT-22 cell line", "assay": "protection against Aβ1–42, cell membrane damage (ToxiLight)", "type": "cell-based, mouse", "conditions": "10 μM pretreatment 1 h, Aβ1–42 35 μM 16 h", "method": "Cells were cultured in Dulbecco’s modified Eagle’s Medium-high glucose (DMEM, GlutaMAX ThermoFisher) supplemented with 10% inactivated fetal bovine serum heat (Thermo Fisher), 100 IU/mL penicillin (Merck), and 100 μg/mL streptomycin (Merck). Cells were cultured in flasks (area 175 cm^2, Nunc) and incubated at 37 °C, 5% CO2. To measure the neuroprotective effect against Aβ1–42, cells were placed in a 96-well culture plate (5 × 10^3 cells per well, Falcon). To measure the toxicity of tested compounds, cells were placed in a 96-well culture plate (5 × 10^3 and 2 × 10^4 cells per well, Falcon).\nStock solutions were prepared at a concentration of 10 mM for the tested compounds. A minimum of 1 mg of each tested compound was weighed and dissolved in an appropriate volume of dimethyl sulfoxide (DMSO). Serial dilutions were prepared in DMSO, and then, the diluted compounds were transferred to phosphate-buffered saline (PBS), mixed, and put into a medium with adherent cells. Before the assays, eventual precipitation or opalescence was checked. […]\nThen, 20 μL of adenylate kinase detection reagent was added. The luminescence was measured after 10 min of incubation with a plate reader, POLARstar Omega (BMG Labtech). The results are expressed as a percentage of the control (Aβ1–42), corresponding to the percentage of dead cells concerning the control sample."}, "[7]": {"conditions": "1 mg/kg i.p., cited from earlier work"}, "rats [8]": {"tested_on": "rats", "conditions": "acute administration, cited from earlier work"}, "SH-SY5Y cells [9]": {"tested_on": "SH-SY5Y cells", "assay": "qRT-PCR of neurodegeneration-associated genes", "type": "cell-based, human", "conditions": "24 h"}, "HT-22 cell line [10]": {"tested_on": "HT-22 cell line", "assay": "protection against Aβ1–42, ROS (CellROX)", "type": "cell-based, mouse", "conditions": "10 μM pretreatment 1 h, Aβ1–42 35 μM 16 h", "method": "Cells were cultured in Dulbecco’s modified Eagle’s Medium-high glucose (DMEM, GlutaMAX ThermoFisher) supplemented with 10% inactivated fetal bovine serum heat (Thermo Fisher), 100 IU/mL penicillin (Merck), and 100 μg/mL streptomycin (Merck). Cells were cultured in flasks (area 175 cm^2, Nunc) and incubated at 37 °C, 5% CO2. To measure the neuroprotective effect against Aβ1–42, cells were placed in a 96-well culture plate (5 × 10^3 cells per well, Falcon).\nStock solutions were prepared at a concentration of 10 mM for the tested compounds. A minimum of 1 mg of each tested compound was weighed and dissolved in an appropriate volume of dimethyl sulfoxide (DMSO). Serial dilutions were prepared in DMSO, and then, the diluted compounds were transferred to phosphate-buffered saline (PBS), mixed, and put into a medium with adherent cells. Before the assays, eventual precipitation or opalescence was checked.\nAβ1–42 (Merck) was initially dissolved in 1,1,1,3,3,3- hexafluor-2-propanol (Merck). […] After this time, the Aβ1–42 solution was evaporated by using nitrogen gas. Next, DMSO was added to obtain a 2 mM stock solution of β-amyloid. […]\nAfter the end of incubation with the tested compounds, the supernatant was removed, and cells were incubated with CellROX (5 μM) in DMEM FluoroBrite (ThermoFisher) for 1 h at 37 °C. The results are expressed as a percentage of control (Aβ1–42)."}, "[11]": {"parameters": "method as in PMID 38190615, PMID 35228010", "conditions": "LC/MS after biotransformation in rLMs; cited from earlier work"}, "SH-SY5Y cells [12]": {"tested_on": "SH-SY5Y cells", "assay": "ROS assay (2',7'DCFH2-DA), rotenone-induced neurotoxicity", "type": "cell-based, human", "conditions": "ROT 32.5 μM alone, 3 h", "experimental": "The ROS measurement was assayed by 2′,7′-dichlorofluorescin diacetate (2′, 7′DCFH2-DA, Sigma, no. D6883). The protocol was previously described in detail.[10] […] The following day, all treatments were carried out with warmed HBSS containing 25 mM HEPES (hereafter referred to as HBSS), and during the operational steps, the cells were kept at 37 °C to minimize temperature stress."}},
  "note": "Like-named read-outs stand apart in the source and are kept apart here.",
  "data": [
    {"smiles": "C[C@]12N[C@H](Cc3ccccc31)c1ccccc12", "note": "[(+)MK-801, reference compound]", "values": [
      {"measurement": "effect on memory functions (DI)", "setting": "rats [1]; 0.1 mg/kg i.p. once, 30 min before the test", "result": "induced deficits in memory functions"}
    ]},
    {"smiles": "CN1CCN(c2nc(N)nc(C(C)(C)[Se]c3ccc4ccccc4c3)n2)CC1", "note": "[PPK-32]", "values": [
      {"measurement": "neurotoxic effect (MTS)", "setting": "SH-SY5Y cells [2]", "result": "no significant differences"},
      {"measurement": "hepatotoxic (statistically significant HepG2 viability decrease)", "setting": "HepG2", "result": ">100", "unit": "µM"},
      {"measurement": "NRF2 protein amount (total extract)", "setting": "NRF2; GAPDH loading control", "result": "protein amount was not modulated"},
      {"measurement": "NRF2 translocation from cytoplasm to nucleus", "setting": "NRF2; nuclear extracts, H3 loading control", "result": "distinctly stronger than that upon WA-22 treatment"},
      {"measurement": "mutagenic", "setting": "[3]", "result": "no"},
      {"measurement": "AUC0–∞", "setting": "[4]; 1 mg/kg i.p.", "result": 1833.92, "unit": "ng·min/mL"},
      {"measurement": "Cmax", "setting": "[4]; 1.0 mg/kg i.p.", "result": 34.9, "unit": "ng/mL"},
      {"measurement": "reduction of cell viability compared to Ctr", "setting": "SH-SY5Y cells [5]", "result": 45, "unit": "%"},
      {"measurement": "protection of cell integrity against membrane destruction caused by Aβ1–42", "setting": "HT-22 cell line [6]", "result": "slightly more potent than the thioether WA-22"},
      {"measurement": "detected in rat organs up to (time after administration)", "setting": "[7]", "result": "up to 120 min"},
      {"measurement": "Cmax", "setting": "[7]; brain, highest value 30 min after administration", "result": 54.9, "unit": "ng/g"},
      {"measurement": "t1/2λz", "setting": "[7]; liver", "result": 1.42, "unit": "h"},
      {"measurement": "memory-protective action at doses as low as", "setting": "rats [8]; male Wistar rats, (+)MK-801", "result": 0.3, "unit": "mg/kg"},
      {"measurement": "reversal of (+)MK-801-induced memory disturbances (DI)", "setting": "rats [1]; 1 mg/kg/day i.p., 21 days", "result": "inactive"},
      {"measurement": "reversal of (+)MK-801-induced memory disturbances (DI)", "setting": "rats [1]; 3 mg/kg/day i.p., 21 days", "result": "significantly reversed"},
      {"measurement": "expression of beta-secretase BACE1", "setting": "SH-SY5Y cells [9]; 10 μM", "result": "negatively regulate"},
      {"measurement": "NRF2 transcription", "setting": "SH-SY5Y cells [9]; 10 and 50 μM", "result": "neither WA-22 nor PPK-32 were able to stimulate its transcription"},
      {"measurement": "expression of NQO1, SOD1, and HO1", "setting": "SH-SY5Y cells [9]; 10 and 50 μM", "result": "induce the expression"},
      {"measurement": "expression of pro-inflammatory gene NFkB", "setting": "SH-SY5Y cells [9]; 10 and 50 μM", "result": "neither WA-22 nor PPK-32 were able to downregulate"},
      {"measurement": "decrease of ROS induced by Aβ", "setting": "HT-22 cell line [10]", "result": "displayed the ability to decrease ROS"},
      {"measurement": "metabolic stability, % of remaining structure", "setting": "[11]", "result": 37, "unit": "%"}
    ]},
    {"smiles": "C=C(C)[C@H]1Cc2c(ccc3c2O[C@@H]2COc4cc(OC)c(OC)cc4[C@@H]2C3=O)O1", "note": "[ROT, Rotenone, reference compound]", "values": [
      {"measurement": "ROS level (Ctr set as 100%)", "setting": "SH-SY5Y cells [12]", "result": 176, "unit": "%"}
    ]},
    {"smiles": "COc1cc2c(cc1OC)C(=O)C(CC1CCN(Cc3ccccc3)CC1)C2", "note": "(stereo not drawn) [donepezil, reference compound]", "values": [
      {"measurement": "active dose in NOR test (significantly reversed MK-801 memory disturbances)", "setting": "rats [8]; rat", "result": "g Dose of a compound that in a statistically significant manner reversed memory disturbances caused by MK-801 in the novel object recognition (NOR) test in rats;[12],[13] active dose for donepezil was 1 mg/kg. mg/kg i.p"},
      {"measurement": "influence on memory compared to vehicle-treated rats (DI)", "setting": "rats [1]; 1 mg/kg/day i.p., 21 days, without (+)MK-801", "result": "No memory changing"},
      {"measurement": "reversal of (+)MK-801-induced memory disturbances (DI)", "setting": "rats [1]; 1 mg/kg/day i.p., 21 days", "result": "reverse memory disturbances"},
      {"measurement": "minimal active chronic dose", "setting": "rats [1]; i.p., 21 days, reversal of (+)MK-801-induced memory impairments", "result": 1, "unit": "mg/kg/day"}
    ]}
  ]
}
